ChEMBL document CHEMBL1817578, “2-({6-[(3R)-3-amino-3-methylpiperidine-1-yl]-1,3-dimethyl-2,4-dioxo-1,2,3,4-tetrahydro-5H-pyrrolo[3,2-d]pyrimidine-5-yl}methyl)-4-fluorobenzonitrile (DSR-12727): a potent, orally active dipeptidyl peptidase IV inhibitor without mechanism-based inactivation of CYP3A” (Bioorg Med Chem, 2011)

Target: T1, Prolyl endopeptidase (Homo sapiens, UniProt P48147)
T1 sequence (P48147 whole entry): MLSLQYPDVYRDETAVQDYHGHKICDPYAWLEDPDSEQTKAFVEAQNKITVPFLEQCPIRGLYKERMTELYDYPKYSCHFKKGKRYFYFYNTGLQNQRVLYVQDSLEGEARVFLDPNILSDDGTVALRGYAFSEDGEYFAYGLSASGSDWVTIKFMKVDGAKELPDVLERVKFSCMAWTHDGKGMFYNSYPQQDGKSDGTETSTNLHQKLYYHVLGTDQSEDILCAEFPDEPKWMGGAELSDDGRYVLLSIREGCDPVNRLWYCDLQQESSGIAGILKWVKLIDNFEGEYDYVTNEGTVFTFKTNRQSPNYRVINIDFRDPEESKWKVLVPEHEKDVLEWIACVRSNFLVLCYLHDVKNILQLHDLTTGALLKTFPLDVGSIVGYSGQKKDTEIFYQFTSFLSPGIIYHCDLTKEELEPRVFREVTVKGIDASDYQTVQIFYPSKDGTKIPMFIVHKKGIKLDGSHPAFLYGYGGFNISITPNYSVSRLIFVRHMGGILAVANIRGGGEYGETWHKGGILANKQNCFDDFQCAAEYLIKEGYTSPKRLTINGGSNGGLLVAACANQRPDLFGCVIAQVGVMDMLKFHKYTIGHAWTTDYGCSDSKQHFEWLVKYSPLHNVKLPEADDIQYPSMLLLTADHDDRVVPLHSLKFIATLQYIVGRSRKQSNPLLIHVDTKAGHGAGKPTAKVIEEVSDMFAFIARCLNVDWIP
Test: Inhibition of prolyl oligopeptidase

- IC50: > 50 µM
SMILES: Cn1c(=O)c2c(cc(N3CCC[C@@](C)(N)C3)n2Cc2cc(F)ccc2C#N)n(C)c1=O
